From ChEMBL document CHEMBL5584339, “Design, Synthesis, and Evaluation of the Antitubercular Activity of 5-Phenyl Substituted-5, 6-dihydropyrido[2, 3-d]pyrimidine-4, 7(3H, 8H)-dione Compounds” (J Med Chem, 2024)
In brackets after ≈: the same amount, converted by molar mass. Activity calls are given as the source filed them. The rule behind the calls is not given here.

How the values were obtained:
[1] = Observed mean residence time infinity in BALB/c mouse at 5 mg/kg, iv measured upto 24 hrs by LC-MS/MS analysis; format: ADME, organism-based; details: in vivo
[2] = Metabolic stability in human liver microsomes assessed as substrate remaining at 2 uM preincubated for 60 mins followed by NADPH addition and measured upto 60 mins by LC-MS analysis; format: ADME, Microsome; details: time < 120 min, read-out: Stability
Mycobacterium marinum [3] = experiment: Antitubercular activity against Mycobacterium marinum infected in zebrafish larvae assessed as increase survival rate at 12.5 to 200 uM measured over 10 days by qPCR analysis; format: functional, organism-based; details: dose 12.5-200 µM, time 10.0 day
[4] = test system: Mycobacterium tuberculosis; experiment: Antitubercular activity against Mycobacterium tuberculosis H37Rv incubated for 7 days by alamar blue assay; format: functional; details: 168 h, time 7 day
[5] = Cytotoxicity against african green monkey Vero cells incubated for 48 hrs by CCK8 assay; format: toxicity, cell-based, Chlorocebus sabaeus
[6] = Metabolic stability in mouse liver microsomes assessed as substrate remaining at 2 uM preincubated for 60 mins followed by NADPH addition and measured upto 60 mins by LC-MS analysis; format: ADME, Microsome; details: time < 120 min, read-out: Stability
[7] = Oral bioavailability in BALB/c mouse at 30 mg/kg measured upto 24 hrs by LC-MS/MS analysis; format: ADME, organism-based; details: in vivo
[8] = Observed extrapolated AUC in BALB/c mouse at 5 mg/kg, iv measured upto 24 hrs by LC-MS/MS analysis; format: ADME, organism-based; details: in vivo
Mycobacterium marinum [9] = experiment: Antitubercular activity against Mycobacterium marinum infected in adult zebrafish assessed as reduction in bacterial count by measuring CFU at 200 uM measured over 10 days; format: functional; details: time 10 day
[10] = Initial plasma concentration in BALB/c mouse at 5 mg/kg, iv measured upto 24 hrs by LC-MS/MS analysis; format: ADME, organism-based
Mycobacterium marinum [11] = experiment: Antitubercular activity against Mycobacterium […] assessed as bactericidal effect by measuring colony forming unit at 200 uM measured over 10 days; format: functional; details: time 10 day
[12] = AUClast in BALB/c mouse at 30 mg/kg, po measured upto 24 hrs by LC-MS/MS analysis; format: ADME, organism-based; details: in vivo
[13] = Metabolic stability in human liver microsomes assessed as intrinsic clearance per mg protein at 2 uM preincubated for 60 mins followed by NADPH addition and measured upto 60 mins by LC-MS analysis; format: ADME, Microsome; details: time < 120 min, read-out: CLH
[14] = Observed extrapolated AUC in BALB/c mouse at 30 mg/kg, po measured upto 24 hrs by LC-MS/MS analysis; format: ADME, organism-based; details: in vivo
Mycobacterium marinum [15] = experiment: Antitubercular activity against Mycobacterium marinum infected in adult zebrafish assessed as reduction in bacterial count by measuring CFU at 50 uM measured over 10 days; format: functional; details: time 10 day
[16] = Observed clearance in BALB/c mouse at 5 mg/kg, iv measured upto 24 hrs by LC-MS/MS analysis; format: ADME, organism-based; details: in vivo
[17] = Tmax in BALB/c mouse at 30 mg/kg, po measured upto 24 hrs by LC-MS/MS analysis; format: ADME, organism-based; details: in vivo
Mycobacterium marinum [18] = experiment: Antitubercular activity against Mycobacterium […] assessed as bactericidal effect by measuring colony forming unit at 100 uM measured over 10 days; format: functional; details: time 10 day
[19] = AUCinfinity in BALB/c mouse at 30 mg/kg, po measured upto 24 hrs by LC-MS/MS analysis; format: ADME, organism-based; details: in vivo
[20] = Observed mean residence time infinity in BALB/c mouse at 30 mg/kg, po measured upto 24 hrs by LC-MS/MS analysis; format: ADME, organism-based; details: in vivo
[21] = Half-life in BALB/c mouse at 30 mg/kg, po measured upto 24 hrs by LC-MS/MS analysis; format: ADME, organism-based; details: in vivo
[22] = AUCinfinity in BALB/c mouse at 5 mg/kg, iv measured upto 24 hrs by LC-MS/MS analysis; format: ADME, organism-based; details: in vivo
Mycobacterium marinum [23] = experiment: Antitubercular activity against Mycobacterium marinum infected in adult zebrafish assessed as reduction in bacterial count by measuring CFU at 100 uM measured over 10 days; format: functional; details: time 10 day
[24] = Dose normalized AUClast in BALB/c mouse at 5 mg/kg, iv measured upto 24 hrs by LC-MS/MS analysis; format: ADME, organism-based; details: in vivo
[25] = Cmax in BALB/c mouse at 30 mg/kg, po measured upto 24 hrs by LC-MS/MS analysis; format: ADME, organism-based; details: in vivo
[26] = AUClast in BALB/c mouse at 5 mg/kg, iv measured upto 24 hrs by LC-MS/MS analysis; format: ADME, organism-based; details: in vivo
[27] = Half-life in BALB/c mouse at 5 mg/kg, iv measured upto 24 hrs by LC-MS/MS analysis; format: ADME, organism-based; details: in vivo
[28] = Observed volume of distribution at steady state in BALB/c mouse at 5 mg/kg, iv measured upto 24 hrs by LC-MS/MS analysis; format: ADME, organism-based; details: in vivo, read-out: Vdss
[29] = Metabolic stability in mouse liver microsomes assessed as half-life at 2 uM preincubated for 60 mins followed by NADPH addition and measured upto 60 mins by LC-MS analysis; format: ADME, Microsome; details: time < 120 min
[30] = Dose normalized AUClast in BALB/c mouse at 30 mg/kg, po measured upto 24 hrs by LC-MS/MS analysis; format: ADME, organism-based; details: in vivo
[31] = target: Voltage-gated inwardly rectifying potassium channel KCNH2 (Homo sapiens, UniProt Q12809); experiment: Inhibition of human ERG expressed in HEK293 cells by whole cell manual patch clamp method; format: toxicity, cell-based
[32] = Cytotoxicity against HK-2 cells incubated for 48 hrs by CCK8 assay; format: toxicity, cell-based; details: human
[33] = Metabolic stability in mouse liver microsomes assessed as intrinsic clearance per mg protein at 2 uM preincubated for 60 mins followed by NADPH addition and measured upto 60 mins by LC-MS analysis; format: ADME, Microsome; details: time < 120 min, read-out: CLH
[34] = Metabolic stability in human liver microsomes assessed as half-life at 2 uM preincubated for 60 mins followed by NADPH addition and measured upto 60 mins by LC-MS analysis; format: ADME, Microsome; details: time < 120 min
[35] = test system: Mycobacterium tuberculosis; experiment: Binding affinity to Mycobacterium tuberculosis AccD5 at 10 uM by SPR analysis
[36] = Stability in mouse plasma by MS analysis; format: ADME, cell-free
Mycobacterium marinum [37] = experiment: Antitubercular activity against Mycobacterium marinum infected in adult zebrafish assessed as reduction in bacterial count by measuring CFU at 400 uM measured over 10 days; format: functional; details: time 10 day
[38] = Selectivity index, ratio of IC50 for african green monkey Vero cells to IC50 for Mycobacterium tuberculosis H37Rv; format: toxicity; details: read-out: Ratio IC50

Sequence of Voltage-gated inwardly rectifying potassium channel KCNH2 (Q12809 whole entry): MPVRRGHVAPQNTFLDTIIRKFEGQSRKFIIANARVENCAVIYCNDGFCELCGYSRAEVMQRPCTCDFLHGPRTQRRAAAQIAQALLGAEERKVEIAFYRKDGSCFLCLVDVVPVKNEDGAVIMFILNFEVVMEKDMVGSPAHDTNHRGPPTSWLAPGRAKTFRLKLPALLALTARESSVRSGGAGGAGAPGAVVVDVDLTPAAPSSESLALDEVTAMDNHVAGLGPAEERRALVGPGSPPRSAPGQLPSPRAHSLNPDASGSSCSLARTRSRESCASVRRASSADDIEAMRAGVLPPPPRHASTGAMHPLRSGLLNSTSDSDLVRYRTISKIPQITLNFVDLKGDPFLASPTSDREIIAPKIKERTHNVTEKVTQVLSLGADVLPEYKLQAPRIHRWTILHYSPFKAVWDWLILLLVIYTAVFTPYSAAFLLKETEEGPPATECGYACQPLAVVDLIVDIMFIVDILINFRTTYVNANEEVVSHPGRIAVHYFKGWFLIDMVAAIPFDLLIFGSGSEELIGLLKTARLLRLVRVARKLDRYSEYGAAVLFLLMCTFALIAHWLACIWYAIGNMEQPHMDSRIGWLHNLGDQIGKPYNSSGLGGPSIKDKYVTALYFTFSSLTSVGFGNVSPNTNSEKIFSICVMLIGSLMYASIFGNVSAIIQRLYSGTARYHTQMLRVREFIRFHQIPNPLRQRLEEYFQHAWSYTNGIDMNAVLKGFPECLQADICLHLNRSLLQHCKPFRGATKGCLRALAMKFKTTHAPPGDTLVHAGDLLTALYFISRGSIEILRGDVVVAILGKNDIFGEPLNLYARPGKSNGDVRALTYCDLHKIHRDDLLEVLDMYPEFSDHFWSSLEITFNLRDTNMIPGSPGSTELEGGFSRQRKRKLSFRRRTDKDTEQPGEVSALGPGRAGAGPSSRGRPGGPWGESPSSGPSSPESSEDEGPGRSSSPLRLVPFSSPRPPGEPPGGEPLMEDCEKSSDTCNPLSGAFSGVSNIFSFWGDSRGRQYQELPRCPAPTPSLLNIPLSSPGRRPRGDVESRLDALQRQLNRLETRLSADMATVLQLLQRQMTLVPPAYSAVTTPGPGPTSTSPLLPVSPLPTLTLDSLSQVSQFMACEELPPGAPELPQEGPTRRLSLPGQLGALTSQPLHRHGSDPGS

Structure (SMILES) | MRT inf [1] | remaining at 1 h, 2 µM [2] | Activity (Mycobacterium marinum [3]) | MIC [4] | IC50 at 48 h [5] | remaining at 1 h, 2 µM [6] | bioavailability [7] | %AUCextra [8] | Activity (Mycobacterium marinum [9]) | C0 at 24 h [10] | Activity (Mycobacterium marinum [11]) | AUC(0-t) at 24 h [12] | microsomal CLint at 2 µM [13] | %AUCextra [14] | Activity (Mycobacterium marinum [15]) | clearance [16] | Tmax [17] | Activity (Mycobacterium marinum [18]) | AUC(0-inf) [19] | Activity (Mycobacterium marinum [23]) | also measured
CCCSc1nc2c(c(=O)[nH]1)[C@@H](c1ccc(OC)cc1)CC(=O)N2 | 7.8 h | 69.8% | Active | 0.06 µg/mL (≈ 0.174 µM) | > 64 µg/mL | 88.5% | 56.7% | 6.41% | 1.9 10^5CFU | 45400 ng/mL | <80 CFU | 410 µg·h/mL | 11.5 µL/min/mg | 3.35% | 2 10^2CFU | 0.673 mL/min/kg | 0.5 h | <80 CFU | 424 µg·h/mL | 8 10^3CFU | MRT inf [20]: 6.85 h; half-life [21]: 5.14 h; AUC(0-inf) [22]: 125 µg·h/mL; AUClast/dose [24]: 23295 kg·ng·h/mL/mg; Cmax [25]: 43300 ng/mL; AUC(0-t) at 24 h [26]: 116 µg·h/mL; half-life [27]: 7.01 h; Vd [28]: 0.312 L/kg; half-life at 2 µM [29]: 6.16 h; AUClast/dose [30]: 13676 kg·ng·h/mL/mg; IC50 [31]: 24.4 µM; IC50 at 48 h [32]: 32.5 µg/mL (≈ 94 µM); microsomal CLint at 2 µM [33]: 3.75 µL/min/mg; half-life at 2 µM [34]: 2 h
CCCSc1nc2c(c(=O)[nH]1)[C@@H](c1ccc(OC)cc1[N+](=O)[O-])CC(=O)N2 | 16.4 h | 83.3% | Active | 3 µg/mL (≈ 7.68 µM) | > 64 µg/mL | 86.2% | 63.8% | 25.2% | 1.6 10^4CFU | 32300 ng/mL | <10 CFU | 595 µg·h/mL | 6.47 µL/min/mg | 11.2% | 1 10^2CFU | 0.5 mL/min/kg | 0.417 h | 80 CFU | 669 µg·h/mL | 2.5 10^3CFU | Activity [35]: Active; MRT inf [20]: 10.1 h; half-life [21]: 7.95 h; AUC(0-inf) [22]: 175 µg·h/mL; AUClast/dose [24]: 26110 kg·ng·h/mL/mg; Cmax [25]: 54000 ng/mL; AUC(0-t) at 24 h [26]: 131 µg·h/mL; half-life [27]: 13.1 h; Vd [28]: 0.488 L/kg; half-life at 2 µM [29]: 5.72 h; AUClast/dose [30]: 19820 kg·ng·h/mL/mg; IC50 [31]: > 30 µM; IC50 at 48 h [32]: 41.1 µg/mL (≈ 105 µM); Stability [36]: Stable; microsomal CLint at 2 µM [33]: 4.04 µL/min/mg; half-life at 2 µM [34]: 3.57 h
CO[C@H]1/C=C/O[C@@]2(C)Oc3c(C)c(O)c4c(O)c(c(/C=N/N5CCN(C)CC5)c(O)c4c3C2=O)NC(=O)/C(C)=C\C=C\[C@H](C)[C@H](O)[C@@H](C)[C@@H](O)[C@@H](C)[C@H](OC(C)=O)[C@@H]1C [RIFAMPIN] | – | – | – | 0.02 µg/mL (≈ 0.0243 µM) | > 100 µg/mL | – | – | – | – | – | – | – | – | – | – | – | – | – | – | 4 10^4CFU | Activity (Mycobacterium marinum [37]): 1.5 10^2CFU; selectivity ratio [38]: > 5000
